The subject of this assay is HepG2 + statin, PCSK9 mRNA qPCR, 24 h. Nature of the assay: statin-induced PCSK9 expression modulation – cell-based, HepG2, RT-PCR, atorvastatin or simvastatin, cherry-pick, mechanism study for Trib1 inducer project, late-stage follow-up (AID 1053153).

Among the data in PubChem BioAssay AID1053153 (Broad Institute, 2014) are fold change values, retold here.

The structures appear in SMILES notation.

`CN1C(=O)c2cc(NC(=O)c3ccc(C(F)(F)F)cc3)ccc2OC[C@@H]2O[C@@H](CC(=O)NC3Cc4ccccc4C3)CC[C@@H]21`: the fold change was 10.
Turning to `CN1C(=O)c2cc(NC(=O)c3ccc(C(F)(F)F)cc3)ccc2OC[C@@H]2O[C@H](CC(=O)NC3Cc4ccccc4C3)CC[C@@H]21`, the fold change is 2.
